According to PubChem BioAssay AID248 (DTP/NCI, 2004):
Toxic doses and inconclusive results are not listed. Rule as the data show it: active = T/C of 150% or more; inactive = T/C below 125%. Square brackets hold non-standard residues; d marks the D form. Peptide text beside a SMILES is read from it. ξ: configuration not given here. ξE = NC(CCC(=O)O)C(=O)O

System: L1210 leukemia ip in BDF1 mice, survival T/C
Test: NCI In Vivo Anticancer Drug Screen. Data for tumor model L1210 Leukemia (intraperitoneal) in B6D2F1 (BDF1) mice
Settings: endpoint: mean survival time, higher = longer survival
Summary of the method: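 In this screen, tumor-bearing mice given compound are compared to those given vehicle, and their survival values are reported as a treated-to-control quotient.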

[1] = dose: 100.0 mg/kg/injection, schedule: Q04DX003 (ip), vehicle: Klucel (hydroxypropylcellulose) (HPC)
[2] = dose: 200.0 mg/kg/injection, schedule: Q04DX003 (ip), vehicle: Klucel (hydroxypropylcellulose) (HPC)
[3] = dose: 400.0 mg/kg/injection, schedule: Q04DX003 (ip), vehicle: Klucel (hydroxypropylcellulose) (HPC)
[4] = dose: 100.0 mg/kg/injection, schedule: Q04DX003 (ip), vehicle: saline
[5] = dose: 200.0 mg/kg/injection, schedule: Q04DX003 (ip), vehicle: saline
[6] = dose: 400.0 mg/kg/injection, schedule: Q04DX003 (ip), vehicle: saline
[7] = dose: 100.0 mg/kg/injection, schedule: Q01DX009 (ip), vehicle: Klucel (hydroxypropylcellulose) (HPC)
[8] = dose: 200.0 mg/kg/injection, schedule: Q01DX009 (ip), vehicle: Klucel (hydroxypropylcellulose) (HPC)
[9] = dose: 400.0 mg/kg/injection, schedule: Q01DX009 (ip), vehicle: Klucel (hydroxypropylcellulose) (HPC)
[10] = dose: 100.0 mg/kg/injection, schedule: Q04DX003 (ip), vehicle: saline with Tween-80
[11] = dose: 200.0 mg/kg/injection, schedule: Q04DX003 (ip), vehicle: saline with Tween-80
[12] = dose: 400.0 mg/kg/injection, schedule: Q04DX003 (ip), vehicle: saline with Tween-80

Measured: T/C

OC12CCCC3CCCC(CCC1)C32 (stereo not given)
inactive: dose: 100.0 mg/kg/injection, schedule: Q01DX009 (ip), vehicle: saline sonified 108 % of control | [1] 106 % of control | dose: 200.0 mg/kg/injection, schedule: Q01DX009 (ip), vehicle: saline sonified 111 % of control | [2] 96 % of control | dose: 400.0 mg/kg/injection, schedule: Q01DX009 (ip), vehicle: saline sonified 92 % of control | [3] 104 % of control

Cc1nc(C)c2c(c1C)-c1ccccc1C2=O
inactive: dose: 50.0 mg/kg/injection, schedule: Q01DX009 (ip), vehicle: other 104 % of control | dose: 50.0 mg/kg/injection, schedule: Q01DX009 (ip), vehicle: saline + alcohol 108 % of control | dose: 100.0 mg/kg/injection, schedule: Q01DX009 (ip), vehicle: other 100 % of control | dose: 100.0 mg/kg/injection, schedule: Q01DX009 (ip), vehicle: saline + alcohol 106 % of control | [4] 102 % of control | dose: 200.0 mg/kg/injection, schedule: Q01DX009 (ip), vehicle: other 100 % of control | dose: 200.0 mg/kg/injection, schedule: Q01DX009 (ip), vehicle: saline + alcohol 108 % of control | [5] 101 % of control | dose: 400.0 mg/kg/injection, schedule: Q01DX009 (ip), vehicle: other 107 % of control | dose: 400.0 mg/kg/injection, schedule: Q01DX009 (ip), vehicle: saline + alcohol 98 % of control | [6] 107 % of control | dose: 500.0 mg/kg/injection, schedule: Q01DX009 (ip), vehicle: other 95 % of control

Cc1ccc(NC(=S)N2CCCCC2)cc1C
inactive: [7] 92 % of control | [8] 93 % of control | [9] 101 % of control

CC1=CC2c3c([nH]c(=S)[nH]c3=O)OC(C)(C)C2CC1 (stereo not given)
inactive: dose: 50.0 mg/kg/injection, schedule: Q01DX009 (ip), vehicle: Klucel (hydroxypropylcellulose) (HPC) 99 % of control | [7] 96 % of control | [8] 96 % of control

NCC(=O)NC(CCC(=O)O)C(=O)O (stereo not given) (H-Gly-[ξE]-OH)
inactive: dose: 50.0 mg/kg/injection, schedule: Q04DX002 (ip), vehicle: saline 89 % of control | dose: 100.0 mg/kg/injection, schedule: Q04DX002 (ip), vehicle: saline 104 % of control | dose: 200.0 mg/kg/injection, schedule: Q04DX002 (ip), vehicle: saline 93 % of control

CC(=O)SCC(C)CCl (stereo not given)
inactive: [4] 102 % of control | [5] 107 % of control | [6] 104 % of control

CN(C)/C=N\c1ncnc2c1ccn2C1OC(CO)C(O)C1O (stereo not given)
inactive: dose: 1.56 mg/kg/injection, schedule: Q01DX005 (ip), vehicle: saline 104 % of control | dose: 1.56 mg/kg/injection, schedule: Q01DX009 (ip), vehicle: saline 109 % of control | dose: 3.12 mg/kg/injection, schedule: Q01DX005 (ip), vehicle: saline 116 % of control | dose: 3.12 mg/kg/injection, schedule: Q01DX009 (ip), vehicle: saline 114 % of control | dose: 6.25 mg/kg/injection, schedule: Q01DX005 (ip), vehicle: saline 93 % of control | dose: 6.25 mg/kg/injection, schedule: Q01DX009 (ip), vehicle: saline 88 % of control

OC(C/C(Cc1ccccc1)=N/Nc1ccccc1)(C(F)(F)F)C(F)(F)F
inactive: [7] 94 % of control | [1] 96 % of control | [8] 96 % of control | [2] 88 % of control | [9] 100 % of control | [3] 107 % of control

CC(=O)OCC(C)([N+](=O)[O-])[N+](=O)[O-]
inactive: dose: 100.0 mg/kg/injection, schedule: Q01DX009 (ip), vehicle: saline with Tween-80 93 % of control | [10] 95 % of control | dose: 200.0 mg/kg/injection, schedule: Q01DX009 (ip), vehicle: saline with Tween-80 90 % of control | [11] 101 % of control | dose: 400.0 mg/kg/injection, schedule: Q01DX009 (ip), vehicle: saline with Tween-80 91 % of control | [12] 103 % of control

Cc1cc(C(=O)C(C#N)=Nc2ccc(N(C)C)cc2)c(CN2C(=O)c3ccccc3C2=O)c(=O)n1C
inactive: dose: 100.0 mg/kg/injection, schedule: Q01DX001 (ip), vehicle: water 92 % of control | dose: 200.0 mg/kg/injection, schedule: Q01DX001 (ip), vehicle: water 94 % of control | dose: 400.0 mg/kg/injection, schedule: Q01DX001 (ip), vehicle: water 94 % of control

OC(c1ccc(OCc2ccccc2)cc1)c1nccc2ccccc12 (stereo not given)
inactive: dose: 100.0 mg/kg/injection, schedule: Q01DX001 (ip), vehicle: acetone 88 % of control

O=C(Nc1ccc(Cl)cc1)C(c1ccccc1)c1ccccc1
inactive: dose: 100.0 mg/kg/injection, schedule: Q04DX002 (ip), vehicle: saline with Tween-80 100 % of control | dose: 200.0 mg/kg/injection, schedule: Q04DX002 (ip), vehicle: saline with Tween-80 110 % of control | dose: 400.0 mg/kg/injection, schedule: Q04DX002 (ip), vehicle: saline with Tween-80 100 % of control

O=c1ccc2cc3oc(=O)ccc3cc2o1
inactive: dose: 100.0 mg/kg/injection, schedule: Q01DX001 (ip), vehicle: saline with Tween-80 90 % of control | dose: 200.0 mg/kg/injection, schedule: Q01DX001 (ip), vehicle: saline with Tween-80 97 % of control | dose: 400.0 mg/kg/injection, schedule: Q01DX001 (ip), vehicle: saline with Tween-80 90 % of control

CCN(CC)c1ccc(-c2cc(NS(=O)(=O)c3ccccc3)ccc2NS(=O)(=O)c2ccccc2)cc1
inactive: dose: 100.0 mg/kg/injection, schedule: Q01DX001 (ip), vehicle: Klucel (hydroxypropylcellulose) (HPC) 95 % of control

CCOC(=O)C1C(=O)C(=O)N2CCCC12 (stereo not given)
inactive: [4] 107 % of control | [5] 96 % of control | [6] 98 % of control

O=C1CCCCC1CC1(O)C(=O)NC2CCC(Br)CC21 (stereo not given)
inactive: dose: 200.0 mg/kg/injection, schedule: Q04DX002 (ip), vehicle: Klucel (hydroxypropylcellulose) (HPC) 100 % of control | dose: 400.0 mg/kg/injection, schedule: Q04DX002 (ip), vehicle: Klucel (hydroxypropylcellulose) (HPC) 92 % of control

Clc1cccc(N2CCN(c3c4c(nc5ccccc35)CCCCC4)CC2)c1
inactive: dose: 100.0 mg/kg/injection, schedule: Q01DX001 (ip), vehicle: saline 93 % of control | dose: 200.0 mg/kg/injection, schedule: Q01DX001 (ip), vehicle: saline 88 % of control | dose: 400.0 mg/kg/injection, schedule: Q01DX001 (ip), vehicle: saline 90 % of control

O=C(CC(C[N+](=O)[O-])c1ccccc1)c1ccc(Cl)cc1 (stereo not given)
inactive: [7] 96 % of control | [8] 90 % of control | [9] 92 % of control

O=c1c2ccccc2[nH]c(=S)n1-c1cccc(C(F)(F)F)c1
inactive: [7] 100 % of control | [8] 97 % of control | [9] 96 % of control

Cn1c(=O)c(=O)n(C)c2cc(Cl)c(Cl)cc21
inactive: dose: 100.0 mg/kg/injection, schedule: Q01DX001 (ip), vehicle: carboxymethylcellulose (CMC) 94 % of control | dose: 200.0 mg/kg/injection, schedule: Q01DX001 (ip), vehicle: carboxymethylcellulose (CMC) 105 % of control

O=C(O)Cn1c(=O)n(CC(=O)O)c2ccccc21
inactive: [10] 93 % of control | [11] 98 % of control | [12] 98 % of control

N#CC1(C#N)C2C=CC(C3CCC=C32)C1(C#N)C#N (stereo not given)
inactive: dose: 12.5 mg/kg/injection, schedule: Q01DX009 (ip), vehicle: saline with Tween-80 109 % of control | dose: 25.0 mg/kg/injection, schedule: Q01DX009 (ip), vehicle: saline with Tween-80 96 % of control | dose: 25.0 mg/kg/injection, schedule: Q04DX003 (ip), vehicle: saline with Tween-80 104 % of control | dose: 50.0 mg/kg/injection, schedule: Q01DX009 (ip), vehicle: saline with Tween-80 111 % of control | dose: 50.0 mg/kg/injection, schedule: Q04DX003 (ip), vehicle: saline with Tween-80 95 % of control | [10] 93 % of control

CCC1(O)C(=O)OCc2c1cc(C)[nH]c2=O (stereo not given)
inactive: dose: 6.25 mg/kg/injection, schedule: Q04DX003 (ip), vehicle: Klucel (hydroxypropylcellulose) (HPC) 86 % of control | dose: 12.5 mg/kg/injection, schedule: Q04DX003 (ip), vehicle: Klucel (hydroxypropylcellulose) (HPC) 94 % of control | dose: 25.0 mg/kg/injection, schedule: Q04DX003 (ip), vehicle: Klucel (hydroxypropylcellulose) (HPC) 86 % of control | dose: 50.0 mg/kg/injection, schedule: Q04DX003 (ip), vehicle: Klucel (hydroxypropylcellulose) (HPC) 89 % of control | [1] 91 % of control | [2] 86 % of control
